Here are results for one compound from patent US20050009886A1, “1,4-Dihydropyridine derivative with a guaiacoxypropanolamine and/or phenoxypropanolamine moiety” (priority 1998, published 2005).

SMILES strings stand for the structures.

The target of assay [1] is T1, β2 (Cavia porcellus, UniProt Q8K4Z4).
T1 construct: a portion of tracheal approximately 4 cm long was removed; from tissue; host or cells: isolated trachea of reserpine-pretreated guinea pigs
As to the kind of experiment: Guinea pig's isolated tracheal, L-isoproterenol relaxation of carbachol contraction (pA2). Particulars: for β2 Value of pA2 Tracheal: vs L-isoproterenol, carbachol 10^−6 M contraction. Here is the method: Guinea pigs of weight between 300˜500 gm were used. […] After the guinea pigs were sacrificed, a slit was made along the neck, and a portion of tracheal approximately 4 cm long was removed. […] The two ends of the tracheal were clamped with frog-heart shaped clamps, one end was fixed at the bottom of tissue bath filled with 20 ml of Kreb's solution, maintained at 37° C., while the other end was connected to a force transducer. Through a COULBOURN AT-High-Speed Videograph, long isometric contractions were recorded. After the sample was given 1.5 gm of tension and equilibrated, the following experiments were performed:
Then the tracheal was repeatedly washed with Kreb's solution for 20 minutes and 10−6 M of carbochol was added to cause contraction in the guinea pig's tracheal. […] This is the test group.
(b) Calculation of pA2: similar to the calculation method for isolated right atrium experiment.

Assay [2] deals with T2, atrial β 1-receptor (Rattus norvegicus, UniProt P18090).
T2 construct: The heart and lung of rat were removed and placed in cold Tris buffer; from tissue; host or cells: membrane preparation from rat atria
T2 sequence (P18090 whole entry): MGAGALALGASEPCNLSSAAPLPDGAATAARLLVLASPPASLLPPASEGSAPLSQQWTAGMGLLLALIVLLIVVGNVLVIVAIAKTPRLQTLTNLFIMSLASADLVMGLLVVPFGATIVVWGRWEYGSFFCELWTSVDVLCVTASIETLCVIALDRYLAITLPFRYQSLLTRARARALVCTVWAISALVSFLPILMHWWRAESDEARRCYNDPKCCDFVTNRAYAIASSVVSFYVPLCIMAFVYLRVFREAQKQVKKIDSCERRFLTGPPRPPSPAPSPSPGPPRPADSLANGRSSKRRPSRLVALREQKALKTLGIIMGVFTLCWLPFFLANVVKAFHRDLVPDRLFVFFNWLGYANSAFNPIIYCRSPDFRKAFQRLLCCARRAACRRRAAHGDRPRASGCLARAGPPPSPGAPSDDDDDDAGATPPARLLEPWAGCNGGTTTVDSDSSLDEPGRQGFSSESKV
In kind it is binding, Wistar rat. As to conditions: 25° C., 60 minutes.

The subject of assay [3] is Calcium. As to the kind of experiment: Calcium antagonism (pKCa^−1, Table 2).
Assay [4] deals with cerebral cortex calcium ion receptors. Particulars: 25° C., 60 minutes.
Assay [5] has as its system A7r5 cells. Particulars: 10^−8, 10^−7, 10^−6M for 5 minutes.

T1 sequence (Q8K4Z4 whole entry): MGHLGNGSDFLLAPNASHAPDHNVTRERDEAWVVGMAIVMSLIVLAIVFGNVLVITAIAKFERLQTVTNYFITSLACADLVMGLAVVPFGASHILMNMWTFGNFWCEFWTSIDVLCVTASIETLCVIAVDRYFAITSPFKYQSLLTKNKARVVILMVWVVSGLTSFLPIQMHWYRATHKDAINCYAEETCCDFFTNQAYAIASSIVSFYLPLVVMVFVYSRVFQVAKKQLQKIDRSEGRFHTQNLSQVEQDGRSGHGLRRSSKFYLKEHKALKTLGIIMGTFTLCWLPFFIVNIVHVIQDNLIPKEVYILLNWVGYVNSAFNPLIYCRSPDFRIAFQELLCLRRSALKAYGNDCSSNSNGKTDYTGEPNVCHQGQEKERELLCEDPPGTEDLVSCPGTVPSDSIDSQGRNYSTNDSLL

`COC(=O)C1=C(C)NC(C)=C(C(=O)OC)C1c1ccc(OCC(O)CNC(C)(C)C)c(OC)c1` (stereo not drawn) [Compound 1]: the “block of the tracheal effect of L-isoproterenol” value in assay [1] (10^−6, 10^−5, and 10^−6 M as printed) is “could competitively block”. The “β2 Tracheal (slope)” value in assay [1] (slope of Schild regression) is listed as “(0.84 ± 0.09)”. Also, the “β2 Value of pA2 Tracheal” value was 7.09 ± 0.54 in assay [1] and 7.09±0.54 in assay [1] (listed as compound 1). In addition, in assay [2], the “[^3H] CGP-12177 (β1) pKi” value was 6.61 ± 0.46. Also, in assay [3], the “Calcium Antagonism PKCa^−1” value turned out to be 7.82 ± 0.49. Besides, the “[^3H]nitrendipine Ca^2+ PKi” value in assay [4] came out at 7.86 ± 0.38. Further, the “calcium ion influx effect of BayK8644” value in assay [5] (10 μM BayK8644) was “significantly blocked”. Also, the “calcium ion influx effect of KCl” value in assay [5] (50 mM KCl) is on record as “significantly blocked”.
